Experimental data from patent US20170067909A1, “ASSAY-READY RECOMBINANT CELLS TRANSIENTLY OVEREXPRESSING GENES ENCODING DRUG TRANSPORTER PROTEINS AND/OR DRUG METABOLIZING ENZYMES” (Corning Incorporated, priority 2012, published 2017).
Positions count from the first letter of the chain named. Like-named read-outs stand apart in the source and are kept apart here.

Columns and labels:
OCT2 [1] = target: T1, OCT2 (Homo sapiens, UniProt O15244)
OCT1 [2] = target: T2, OCT1 (Homo sapiens, UniProt O15245); conditions: read-out: IC50, Literature Report; substrate Metformin; HEK293 Cells; Sumito I, et al., JPET, 2011; cited from earlier work
T2 sequence (O15245 whole entry): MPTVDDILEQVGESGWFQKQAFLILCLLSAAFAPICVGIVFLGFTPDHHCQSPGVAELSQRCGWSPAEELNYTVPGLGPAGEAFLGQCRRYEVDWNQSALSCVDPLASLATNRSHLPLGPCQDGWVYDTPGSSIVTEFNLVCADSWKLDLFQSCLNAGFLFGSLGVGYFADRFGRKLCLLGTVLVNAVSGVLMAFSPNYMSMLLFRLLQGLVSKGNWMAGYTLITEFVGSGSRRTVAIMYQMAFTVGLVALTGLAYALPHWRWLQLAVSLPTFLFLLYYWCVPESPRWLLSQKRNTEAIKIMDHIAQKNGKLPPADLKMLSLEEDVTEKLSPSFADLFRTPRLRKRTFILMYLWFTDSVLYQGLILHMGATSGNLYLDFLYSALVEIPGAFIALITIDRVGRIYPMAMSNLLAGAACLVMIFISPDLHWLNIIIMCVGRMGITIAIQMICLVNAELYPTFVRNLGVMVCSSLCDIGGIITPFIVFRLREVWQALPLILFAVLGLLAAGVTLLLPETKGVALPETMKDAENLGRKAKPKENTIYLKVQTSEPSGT

OCT1 [3] = target: T2, OCT1
OCT2 [4] = target: T1, OCT2; conditions: read-out: IC50, Literature Report; substrate Metformin; HEK293 Cells; Sumito I, et al., JPET, 2011; cited from earlier work
OATP1B1*15 = target: T3, OATP1B1*15 (Homo sapiens, UniProt Q9Y6L6, N130D/V174A); conditions: for uptake reduced to: human
T3 sequence (Q9Y6L6 1-691 N130D/V174A): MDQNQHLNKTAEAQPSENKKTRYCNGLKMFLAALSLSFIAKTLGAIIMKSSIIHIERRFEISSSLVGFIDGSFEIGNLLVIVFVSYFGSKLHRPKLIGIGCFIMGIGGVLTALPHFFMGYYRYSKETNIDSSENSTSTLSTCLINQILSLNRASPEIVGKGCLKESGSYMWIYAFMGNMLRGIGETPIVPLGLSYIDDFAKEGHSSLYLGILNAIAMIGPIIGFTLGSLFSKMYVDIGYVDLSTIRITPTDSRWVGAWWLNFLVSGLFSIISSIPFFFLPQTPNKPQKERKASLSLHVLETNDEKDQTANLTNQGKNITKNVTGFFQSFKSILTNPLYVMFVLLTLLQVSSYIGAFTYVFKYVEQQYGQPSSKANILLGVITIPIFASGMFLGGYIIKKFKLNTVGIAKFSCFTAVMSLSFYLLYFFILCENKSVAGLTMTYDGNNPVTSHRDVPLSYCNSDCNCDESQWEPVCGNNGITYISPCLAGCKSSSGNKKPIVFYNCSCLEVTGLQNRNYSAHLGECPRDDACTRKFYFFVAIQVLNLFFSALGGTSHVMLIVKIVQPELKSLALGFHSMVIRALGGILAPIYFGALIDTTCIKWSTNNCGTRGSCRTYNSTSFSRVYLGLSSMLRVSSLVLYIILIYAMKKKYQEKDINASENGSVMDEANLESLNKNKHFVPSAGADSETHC

MATE1 = target: T4, MATE1 (Homo sapiens, UniProt Q96FL8); conditions: 5 min, 10 µM, pH 7.4
T4 sequence (Q96FL8 1-570): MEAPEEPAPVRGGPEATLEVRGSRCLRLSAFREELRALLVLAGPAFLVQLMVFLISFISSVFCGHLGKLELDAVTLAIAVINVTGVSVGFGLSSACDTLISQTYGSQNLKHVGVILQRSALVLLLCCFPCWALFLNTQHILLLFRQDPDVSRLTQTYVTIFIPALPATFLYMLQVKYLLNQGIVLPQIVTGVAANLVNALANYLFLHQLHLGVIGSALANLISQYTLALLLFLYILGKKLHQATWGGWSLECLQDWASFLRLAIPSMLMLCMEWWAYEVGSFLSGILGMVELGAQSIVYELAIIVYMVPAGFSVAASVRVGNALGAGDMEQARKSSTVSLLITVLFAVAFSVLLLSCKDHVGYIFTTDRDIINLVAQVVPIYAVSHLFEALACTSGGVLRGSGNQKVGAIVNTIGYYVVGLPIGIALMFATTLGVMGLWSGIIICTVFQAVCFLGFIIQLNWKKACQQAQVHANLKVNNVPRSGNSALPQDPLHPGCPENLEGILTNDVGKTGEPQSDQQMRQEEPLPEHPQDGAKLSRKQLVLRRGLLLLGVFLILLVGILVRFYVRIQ

MATE2K = MATE2K (Homo sapiens, UniProt Q86VL8); conditions: 5 min, 10 µM, pH 7.4
Sequence of MATE2K (Q86VL8 1-566 isoform Q86VL8-3): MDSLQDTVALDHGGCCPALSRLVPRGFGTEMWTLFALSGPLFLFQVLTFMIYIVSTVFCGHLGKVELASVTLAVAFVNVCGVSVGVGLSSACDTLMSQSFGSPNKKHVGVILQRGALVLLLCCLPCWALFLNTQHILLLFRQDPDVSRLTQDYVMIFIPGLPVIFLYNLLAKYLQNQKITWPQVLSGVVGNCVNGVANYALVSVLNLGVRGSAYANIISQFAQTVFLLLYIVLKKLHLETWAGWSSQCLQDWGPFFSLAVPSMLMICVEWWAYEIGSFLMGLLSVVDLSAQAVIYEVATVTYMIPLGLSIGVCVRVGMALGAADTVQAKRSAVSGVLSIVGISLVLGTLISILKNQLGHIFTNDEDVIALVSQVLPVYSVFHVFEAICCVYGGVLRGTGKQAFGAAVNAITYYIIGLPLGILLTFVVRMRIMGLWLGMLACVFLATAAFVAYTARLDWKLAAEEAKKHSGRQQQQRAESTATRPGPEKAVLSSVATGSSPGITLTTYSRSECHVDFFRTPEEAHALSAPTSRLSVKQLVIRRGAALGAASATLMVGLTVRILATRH

OAT3 [5] = target: T5, OAT3 (Homo sapiens, UniProt Q8TCC7); conditions: read-out: Km, SLC Transporter Cells; substrate 0.5 to 32 μM, incubation 1 min
T5 sequence (Q8TCC7 1-542): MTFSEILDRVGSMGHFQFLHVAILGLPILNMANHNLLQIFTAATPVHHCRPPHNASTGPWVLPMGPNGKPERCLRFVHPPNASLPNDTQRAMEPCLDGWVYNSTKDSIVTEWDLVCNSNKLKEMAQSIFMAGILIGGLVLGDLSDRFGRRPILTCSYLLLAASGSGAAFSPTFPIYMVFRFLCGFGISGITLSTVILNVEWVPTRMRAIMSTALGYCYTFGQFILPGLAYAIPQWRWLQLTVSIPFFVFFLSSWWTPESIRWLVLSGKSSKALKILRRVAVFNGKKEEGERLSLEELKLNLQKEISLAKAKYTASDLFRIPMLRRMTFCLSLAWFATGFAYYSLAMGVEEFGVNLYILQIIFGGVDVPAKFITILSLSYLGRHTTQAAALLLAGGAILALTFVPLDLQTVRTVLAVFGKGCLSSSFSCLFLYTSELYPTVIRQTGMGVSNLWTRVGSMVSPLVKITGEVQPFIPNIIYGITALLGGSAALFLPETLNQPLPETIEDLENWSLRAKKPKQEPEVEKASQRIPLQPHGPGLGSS

OAT3 [6] = target: T5, OAT3; conditions: read-out: Km, Literature Report; HEK293 cells; Ueo H, et al., Biochem Pharmacol., 2005; cited from earlier work
rat Oatp1b2 = target: T6, rat Oatp1b2 (Rattus norvegicus, UniProt Q9QZX8)
T6 sequence (Q9QZX8 1-687): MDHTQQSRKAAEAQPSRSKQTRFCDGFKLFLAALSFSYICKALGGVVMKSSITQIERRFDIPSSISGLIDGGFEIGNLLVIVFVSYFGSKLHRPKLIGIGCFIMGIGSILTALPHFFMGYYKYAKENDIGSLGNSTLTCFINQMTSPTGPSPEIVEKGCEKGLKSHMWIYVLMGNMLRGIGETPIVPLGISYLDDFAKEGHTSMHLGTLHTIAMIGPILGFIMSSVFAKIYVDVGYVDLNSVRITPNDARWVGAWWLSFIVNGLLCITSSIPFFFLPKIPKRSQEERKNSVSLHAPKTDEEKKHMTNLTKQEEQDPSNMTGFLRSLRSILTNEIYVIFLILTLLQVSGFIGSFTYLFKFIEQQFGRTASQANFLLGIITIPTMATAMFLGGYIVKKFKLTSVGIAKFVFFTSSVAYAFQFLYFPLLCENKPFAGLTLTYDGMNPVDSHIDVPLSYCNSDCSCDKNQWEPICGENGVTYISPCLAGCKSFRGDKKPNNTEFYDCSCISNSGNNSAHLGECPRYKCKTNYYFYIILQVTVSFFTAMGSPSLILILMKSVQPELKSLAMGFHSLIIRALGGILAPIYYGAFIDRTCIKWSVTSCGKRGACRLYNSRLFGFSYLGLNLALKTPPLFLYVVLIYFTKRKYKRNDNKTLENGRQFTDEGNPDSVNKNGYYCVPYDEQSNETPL

OATP1B1*5 = target: T7, OATP1B1*5 (Homo sapiens, UniProt Q9Y6L6, V174A)
T7 sequence (Q9Y6L6 1-691 V174A): T3 sequence (Q9Y6L6 1-691 N130D/V174A) with D130N

[7] = HEK-293 cells overexpressing the transporter

T1 sequence (O15244 whole entry): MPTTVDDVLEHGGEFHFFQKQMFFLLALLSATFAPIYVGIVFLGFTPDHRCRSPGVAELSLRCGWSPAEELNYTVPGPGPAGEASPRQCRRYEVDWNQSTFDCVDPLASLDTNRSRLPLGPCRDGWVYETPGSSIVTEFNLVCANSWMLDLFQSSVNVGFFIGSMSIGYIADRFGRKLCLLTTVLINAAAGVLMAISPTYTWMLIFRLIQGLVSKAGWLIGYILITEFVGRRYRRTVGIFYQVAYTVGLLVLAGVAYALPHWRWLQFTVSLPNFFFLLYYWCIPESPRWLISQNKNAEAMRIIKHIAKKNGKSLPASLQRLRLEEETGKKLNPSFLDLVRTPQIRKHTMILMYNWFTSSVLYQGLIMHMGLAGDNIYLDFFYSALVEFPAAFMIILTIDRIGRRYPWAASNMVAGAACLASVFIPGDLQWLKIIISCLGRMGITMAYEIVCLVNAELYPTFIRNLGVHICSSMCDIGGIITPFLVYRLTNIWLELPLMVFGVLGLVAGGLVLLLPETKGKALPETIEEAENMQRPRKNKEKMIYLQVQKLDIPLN

## CN/C(=N/CCSCc1nc[nH]c1C)NC#N [Cimetidine]
OCT2 [1]
  IC50: 195 µM
OCT1 [2]
  IC50: 104 µM
OCT1 [3]
  IC50: 230 µM
OCT2 [4]
  IC50: 124 µM

## CC(C)n1c(/C=C/C(O)CC(O)CC(=O)O)c(-c2ccc(F)cc2)c2ccccc21 (stereo not shown) [fluvastatin]
OATP1B1*15
  uptake reduced to: less than 5%

## CN(C)C(=N)N=C(N)N [Metformin]
MATE1
  UPTAKE ACTIVITY SLC transporter: 71.4 pmol/mg/min
  Uptake Ratio: 12
MATE2K
  UPTAKE ACTIVITY SLC transporter: 33.5 pmol/mg/min
  Uptake Ratio: 6.5

## C[C@]12CC[C@@H]3c4ccc(OS(=O)(=O)O)cc4CC[C@H]3[C@@H]1CCC2=O [E3S, Estrone-3-sulfate]
OAT3 [5]
  Km: 4 µM
OAT3 [6]
  Km: 6.3 µM

## CC(C)c1nc(N(C)S(C)(=O)=O)nc(-c2ccc(F)cc2)c1/C=C/[C@@H](O)C[C@@H](O)CC(=O)O [rosuvastatin]
Monkey Oatp1b1
  uptake of substrate (in words): significant uptake
Rat Oatp1b2
  uptake of substrate (in words): significant uptake
Dog Oatp1b4
  uptake of substrate (in words): significant uptake

## O=C(O)C[C@H](O)C[C@H](O)/C=C/c1c(C2CC2)nc2ccccc2c1-c1ccc(F)cc1 [pitavastatin]
OATP1B1*15
  uptake reduced to: 40%

## CSCC[C@H](NC(=O)[C@H](Cc1ccc(OS(=O)(=O)O)cc1)NC(=O)[C@@H](N)CC(=O)O)C(=O)NCC(=O)N[C@@H](Cc1c[nH]c2ccccc12)C(=O)N[C@@H](CCSC)C(=O)N[C@@H](CC(=O)O)C(=O)N[C@@H](Cc1ccccc1)C(N)=O [CCK-8, cholecystokinin]
Rat Oatp1b2; [7]
  uptake of substrate (in words): significant uptake
Dog Oatp1b4; [7]
  uptake of substrate (in words): significant uptake

## CC(C)c1c(C(=O)Nc2ccccc2)c(-c2ccccc2)c(-c2ccc(F)cc2)n1CC[C@@H](O)C[C@@H](O)CC(=O)O [atorvastatin]
OATP1B1*5
  uptake activity / transport compared to OATP1B1*1a cells (in words): Significant decrease in uptake activity
OATP1B1*15
  uptake activity / transport compared to OATP1B1*1a cells (in words): Significant decrease in uptake activity
